We go through four compounds from PMC4457651 (Biochimica et biophysica acta, 2015).

One data set addresses horse metMb. The settings on record: read-out: KDapp, metMb; pH 7; cited from earlier work.
Data set [1] has as its target T1, yeast cytochrome c peroxidase (yCcP) (Saccharomyces cerevisiae, UniProt P00431).
T1 sequence (P00431 68-361): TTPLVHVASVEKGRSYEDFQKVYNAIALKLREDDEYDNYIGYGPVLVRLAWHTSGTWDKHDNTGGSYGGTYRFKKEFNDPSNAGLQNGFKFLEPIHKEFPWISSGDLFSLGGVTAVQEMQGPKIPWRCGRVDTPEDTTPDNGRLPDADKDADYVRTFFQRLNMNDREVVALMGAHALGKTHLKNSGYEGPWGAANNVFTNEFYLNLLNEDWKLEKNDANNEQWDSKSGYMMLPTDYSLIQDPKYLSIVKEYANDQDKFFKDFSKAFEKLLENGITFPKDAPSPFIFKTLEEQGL
As to the kind of experiment: Equilibrium binding to heme of yCcP by spectrophotometric titration. Also on record: species or system S. cervisiae. To be noted: for KAapp: calculated from best-fit line.

Data set [2] deals with yCcP (heme and Trp-191 cavity) (Saccharomyces cerevisiae, UniProt P00431). As to the kind of experiment: Kinetics of ligand binding to yCcP. The settings on record: for KA2: Trp-191 cavity of yCcP; for KA2 / k4: fit to Eq. 5; for k4: Trp-191 cavity of yCcP/MIM complex. Set-up: species or system S. cervisiae.
For data set [3], the target named is rCcP (heme and Trp-191 cavity) (Saccharomyces cerevisiae, UniProt P00431). As to the kind of experiment: Kinetics of ligand binding to rCcP. The settings on record: for Time for initial binding phase to be complete: first kinetic phase, manual mixing. Also on record: species or system baker's yeast.
For data set [4] the following is noted: neutral pH; cited from earlier work.
Data set [5] has as its target recombinant cytochrome c peroxidase (rCcP) (Saccharomyces cerevisiae, UniProt P00431). The data set can be described thus: Equilibrium binding to heme of rCcP by spectrophotometric titration. Set-up: species or system baker's yeast.
Another data set addresses CcP(H52L) (Saccharomyces cerevisiae, UniProt P00431, H119L). As to the kind of experiment: Equilibrium binding to CcP. Also on record: species or system baker's yeast.
Data set [6] has as its target Rhodobacter sphaeroides cytochrome c1. The settings on record: read-out: KD, Rhodobacter sphaeroides cytochrome c1 imidazole complex; cited from earlier work.
Another data set concerns the target nitric oxide synthase. To be noted: read-out: KD, nitric oxide synthase imidazole complex; cited from earlier work.
The target in data set [7] is Chironomus plumosus metHb. To be noted: read-out: KD, Chironomus plumosus metHb imidazole complex; cited from earlier work.
In data set [8] the target is R. capsulatus cytochrome c2(M96N). To be noted: read-out: KD, R. capsulatus cytochrome c2(M96N) imidazole complex; cited from earlier work.
The subject of a further data set is cytochrome P450CAM. The settings on record: read-out: KD, cytochrome P450CAM imidazole complex; cited from earlier work.
The target of the next data set is CcP(W191G). To be noted: read-out: Apparent KD, CcP(W191G)/imidazole complex; cited from earlier work.
The subject of data set [9] is horseradish peroxidase (HRP). To be noted: pH 9.3; cited from earlier work.
The subject of another data set is sperm whale metMb. The settings on record: cited from earlier work.
A further data set addresses horse cytochrome c. To be noted: read-out: KD, horse cytochrome c imidazole complex; cited from earlier work.
The conditions of data set [10]: ionization of free imidazole; cited from earlier work.
Setting [11] is: pH 7.0, biphasic imidazole titration.
The mark [12] stands for this setting: 8.76 μM rCcP, 3.15 M imidazole, pH 7.0.

A value given as a limit tells only on which side of the number the result lay.

CcP(H52L), sequence (P00431 68-361 H119L): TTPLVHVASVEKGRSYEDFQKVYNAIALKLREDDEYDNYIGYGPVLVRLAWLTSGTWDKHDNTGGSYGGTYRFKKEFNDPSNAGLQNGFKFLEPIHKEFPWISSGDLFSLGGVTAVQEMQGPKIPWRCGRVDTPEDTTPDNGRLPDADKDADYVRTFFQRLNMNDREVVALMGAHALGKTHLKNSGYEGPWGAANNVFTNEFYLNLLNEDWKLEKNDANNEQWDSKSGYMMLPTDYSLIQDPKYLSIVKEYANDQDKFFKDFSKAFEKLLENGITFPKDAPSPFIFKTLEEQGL

As for `Cn1ccnc1` [1-Methylimidazole, 1-methylimidazole], the Kd is 87 mM on horse metMb and 5 ± 2 mM in data set [2]. Besides, the “Apparent pKa of ionizable group affecting MIM binding affinity” value in data set [1] (Saccharomyces cerevisiae (yeast), pH 4) was 5.2 ± 0.3. Besides, the “Increase in binding affinity on decreasing pH from 7.5 to 4.0” value in data set [1] (yCcP) was 4 fold. Further, the KAapp in data set [1] (yCcP, pH 4.1) is 4.72 M⁻¹; in data set [1] (yCcP, pH 4.5) it was 4.37 M⁻¹; in data set [1] (yCcP, pH 5.0), 3.53 M⁻¹; in data set [1] (yCcP, pH 5.5), 2.48 M⁻¹; in [1] (yCcP, pH 6.0) it was 1.74 M⁻¹; in data set [1] (yCcP, pH 6.5) it was 1.40 M⁻¹. The KAapp in data set [1] (yCcP, pH 7.0) is 1.30 M⁻¹; in data set [1] (yCcP, pH 7.5), 1.24 M⁻¹. In addition, the KA2 result was “(2.94 ± 0.28) × 10^2 M^−1” in data set [2] (pH 4.1); “(9.19 ± 0.52) × 10^1 M^−1” in data set [2] (pH 4.5); “(1.74 ± 0.17) × 10^2 M^−1” in data set [2] (pH 5.0); “(1.73 ± 0.35) × 10^2 M^−1” in [2] (pH 5.5); “(2.64 ± 0.18) × 10^2 M^−1” in [2] (pH 6.0); “(2.13 ± 0.27) × 10^2 M^−1” in data set [2] (pH 6.5). The KA2 result was “(2.13 ± 0.81) × 10^3 M^−1” in data set [2] (pH 7.0) and “(4.52 ± 5.10) × 10^3 M^−1” in data set [2] (pH 7.5). Besides, the k4 result is recorded as “(1.55 ± 0.08) × 10^−1 M^−1 s^−1” in data set [2] (pH 4.1); “(2.49 ± 0.16) × 10^−2 M^−1 s^−1” in [2] (pH 4.5); “(2.72 ± 0.35) × 10^−2 M^−1 s^−1” in [2] (pH 5.0); “(1.14 ± 0.03) × 10^−2 M^−1 s^−1” in data set [2] (pH 5.5); “(1.60 ± 0.03) × 10^−2 M^−1 s^−1” in data set [2] (pH 6.0); “(1.26 ± 0.03) × 10^−2 M^−1 s^−1” in data set [2] (pH 6.5). For the same compound, the k4 entry in [2] (pH 7.0) is “(9.21 ± 3.17) × 10^−3 M^−1 s^−1”; in data set [2] (pH 7.5), “(5.48 ± 1.2) × 10^0 M^−1 s^−1”. In data set [2] (binding into Trp-191 cavity of heme-ligated yCcP, average pH 4.1 to 6.5), the “k4, average” value is “(4.1 ± 0.6) × 10^−2 M^−1s^−1”. Also, the “KA2, average” value in [2] (binding into Trp-191 cavity, yCcP, average pH 4.1 to 6.5) was determined as 200 ± 70 M⁻¹. For the same compound, in [3], the “kfobs faster than kfobs for the imidazole/CcP reaction” value is reported as “about 10 times”. The “ksobs, observed rate constant of slow absorbance change” value in [3] (9.07 μM rCcP, 0.992 M MIM, pH 7.0) was “(1.13 ± 0.06) × 10^−4 s^−1”. The “kfobs, lower limit for initial binding” value in data set [3] (assuming 97% of reaction complete within 10 s mixing) is at least 0.35 s⁻¹. For the same compound, the “Time for initial binding phase to be complete” value was at most 10 s in data set [3] and “less than 10 s” in [3] (listed as MIM). Also, the “KA1 as fraction of KAapp” value in [3] (pH 7) is reported as “about 4%”.

`O=[N+]([O-])c1c[nH]cn1` [4-Nitroimidazole, 4-nitroimidazole]: the Kd is 2.5 mM on horse metMb, around 100 mM in data set [5] and around 30 mM at CcP(H52L). Further, in data set [1] (~5 mM 4NI, pH 7.0, estimate), the “Fraction of yCcP bound to ligand at highest ligand concentration” value is “about 2%”. Further, the “Concentration of saturated solution in aqueous buffer” value in data set [4] was “less than 6 mM”. Besides, the “Fraction of rCcP bound to ligand at highest ligand concentration” value in data set [5] (~5 mM 4NI, pH 7.0, estimate) is ~ 5%. Also, the “Fraction of CcP(H52L)/4NI complex formed” value on CcP(H52L) (4.80 mM 4NI, pH 7.0, estimate) was “about 14%”. Moreover, the “Affinity of CcP(H52L) higher than CcP” value on CcP(H52L) (estimated) was 7 fold.

Consider `c1c[nH]cn1` [Imidazole, imidazole], for which the Kd in [6] is 0.033 mM; at nitric oxide synthase it was 0.063 mM; on horse metMb, 28 mM; in [7], 0.029 mM; in data set [8] it was 0.0018 mM; with cytochrome P450CAM, 0.4 mM. Moreover, the Kd at CcP(W191G) was 0.7 mM; at sperm whale metMb (read-out: KD, sperm whale metmyoglobin imidazole complex) it was 26 mM; at horse cytochrome c, 34 mM. Further, in data set [1] (imidazole up to 4.90 M, pH 7.0), the “Fraction of yCcP bound to ligand at highest ligand concentration” value is given as “about 60%”. In data set [1] (pH 7), the “Binding to CcP weaker than binding to metmyoglobin” value was “about 120 times”. For the same compound, the “KDapp of rCcP complex larger than for yCcP complex” value in [5] (pH 7.0) is “about 40%”. The “High-affinity phase of CcP(H52L): greater affinity than yCcP” value on CcP(H52L) is 25 fold. Also, the “Low-affinity phase of CcP(H52L) weaker than binding by yCcP” value on CcP(H52L) is given as “about 3 times”. The “Fraction of high-affinity phase, CcP(H52L)” value at CcP(H52L) (setting [11]) is below 46%. The “Fraction of low-affinity phase, CcP(H52L)” value at CcP(H52L) (setting [11]) is listed as above 54%. Besides, in data set [9], the “Formation of HRP/imidazole complex” value was “Only partial formation”. Also, the “Rate constant of binding to sperm whale metMb” value in the data set with sperm whale metMb is 360 M⁻¹ s⁻¹. In addition, the “pKA of free imidazole” value in [10] is 14.4. For the same compound, the “kfobs, observed rate constant of fast phase” value in data set [3] (setting [12]) is recorded as “(2.13 ± 0.08) × 10^−2 s^−1”. Further, the “ksobs, observed rate constant of slow phase” value in [3] (setting [12]) is reported as “(2.91 ± 0.01) × 10^−4 s^−1”.

Turning to `c1c[nH]cn1` [imidazolium ion], the “Rate constant of binding to sperm whale metMb” value in the data set with sperm whale metMb was 127 M⁻¹ s⁻¹.
